Experimental data: US8552002B2 (Novartis AG, priority 2004, dated 2013)

Columns and labels:
c-Abl = c-Abl (Homo sapiens, UniProt P00519); test: Inhibitory activity against c-Abl (Example 207); format: biochemical; conditions: Examples 171 to 206
KDR = biological target: T1, KDR (Homo sapiens, UniProt P35968); test: Inhibitory activity against KDR (VEGF-R2), in vitro data of Examples 170 and 207; format: biochemical; conditions: 10 μM; Examples 171 to 206; read-out: KDR inhibition at 10 μM
T1 construct: expressed in transfected cells; host or cells: CHO cells
T1 sequence (P35968 20-1356): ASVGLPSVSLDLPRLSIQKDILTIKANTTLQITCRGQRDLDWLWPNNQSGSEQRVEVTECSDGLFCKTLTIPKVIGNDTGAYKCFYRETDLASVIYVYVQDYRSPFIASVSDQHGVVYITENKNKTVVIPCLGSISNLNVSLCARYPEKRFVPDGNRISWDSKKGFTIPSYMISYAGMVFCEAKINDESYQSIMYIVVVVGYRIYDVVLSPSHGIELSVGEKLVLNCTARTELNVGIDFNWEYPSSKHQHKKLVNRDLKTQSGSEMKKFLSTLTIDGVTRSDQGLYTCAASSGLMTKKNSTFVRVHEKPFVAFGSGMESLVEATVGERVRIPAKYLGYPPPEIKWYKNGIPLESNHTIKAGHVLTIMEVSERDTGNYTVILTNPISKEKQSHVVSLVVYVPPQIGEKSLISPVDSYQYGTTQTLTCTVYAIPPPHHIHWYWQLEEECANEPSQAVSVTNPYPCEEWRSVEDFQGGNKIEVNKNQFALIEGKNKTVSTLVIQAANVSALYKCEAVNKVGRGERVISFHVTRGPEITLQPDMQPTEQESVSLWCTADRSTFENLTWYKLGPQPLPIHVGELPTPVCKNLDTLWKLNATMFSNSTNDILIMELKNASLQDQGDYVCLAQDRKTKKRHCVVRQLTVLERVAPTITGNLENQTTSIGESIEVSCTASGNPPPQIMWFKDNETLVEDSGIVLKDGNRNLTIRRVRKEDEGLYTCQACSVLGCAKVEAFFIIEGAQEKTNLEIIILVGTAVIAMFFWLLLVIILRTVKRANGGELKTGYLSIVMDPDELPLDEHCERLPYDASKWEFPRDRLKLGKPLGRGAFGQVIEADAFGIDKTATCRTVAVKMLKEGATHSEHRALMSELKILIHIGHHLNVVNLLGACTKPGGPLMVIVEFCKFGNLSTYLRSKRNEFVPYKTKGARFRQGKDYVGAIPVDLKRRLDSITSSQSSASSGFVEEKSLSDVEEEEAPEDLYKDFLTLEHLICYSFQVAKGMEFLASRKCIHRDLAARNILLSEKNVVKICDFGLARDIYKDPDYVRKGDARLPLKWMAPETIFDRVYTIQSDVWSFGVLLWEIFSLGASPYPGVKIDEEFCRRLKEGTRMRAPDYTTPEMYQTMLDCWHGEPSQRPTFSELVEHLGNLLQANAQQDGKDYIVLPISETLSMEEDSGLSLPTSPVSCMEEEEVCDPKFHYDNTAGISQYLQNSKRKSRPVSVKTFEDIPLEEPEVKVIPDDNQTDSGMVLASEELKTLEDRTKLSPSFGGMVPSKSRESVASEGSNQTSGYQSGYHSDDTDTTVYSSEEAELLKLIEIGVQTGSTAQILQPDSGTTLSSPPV
Procedure, shortened: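 KDR tyrosine phosphorylation detected by luminescence after overnight 4° C capture of 20 μg lysate protein with PY20:AP antibody. Lysates came from cells given compound for 2 h at 37° C, then final 20 ng/ml VEGF for 5 min; compound-free medium as control.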

FGFR3 (K650E) = biological target: T2, FGFR3 (K650E) (Homo sapiens, UniProt P22607, K650E); test: Recombinant GST-FGFR-3-K650E tyrosine kinase assay (33P into poly(Glu,Tyr)); format: biochemical; conditions: 10 μM; Examples 171 to 206; read-out: FGFR3 inhibition at 10 μM
T2 construct: amino acids 411-806 of the cytoplasmic domain of human FGFR-3, N-terminally fused to GST; made in house; host or cells: Sf9 insect cells (baculovirus)
T2 sequence (P22607 411-806 K650E): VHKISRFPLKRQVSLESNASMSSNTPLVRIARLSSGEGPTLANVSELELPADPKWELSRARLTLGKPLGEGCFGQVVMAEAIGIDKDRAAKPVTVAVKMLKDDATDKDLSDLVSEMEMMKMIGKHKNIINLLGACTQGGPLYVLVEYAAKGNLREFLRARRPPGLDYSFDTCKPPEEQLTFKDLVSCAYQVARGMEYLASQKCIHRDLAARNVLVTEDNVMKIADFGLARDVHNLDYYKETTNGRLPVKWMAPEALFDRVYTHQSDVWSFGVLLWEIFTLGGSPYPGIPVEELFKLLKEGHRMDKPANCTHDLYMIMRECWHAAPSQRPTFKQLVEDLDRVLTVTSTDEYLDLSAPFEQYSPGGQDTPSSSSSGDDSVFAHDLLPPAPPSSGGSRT

FGFR35 [1] = biological target: T3, FGFR35 (Homo sapiens, UniProt P22607); test: FGFR35 (cellular assay), proliferation of Ba/F3-TEL-FGFR35 cells; format: cell-based; set-up: fused on or other part: N-terminal part of TEL (ETV6), which acts as the oligomerising partner; it is fused to the part of FGFR3 that carries the kinase; P41212 (Transcription factor ETV6); conditions: 48 hours, read-out: IC50 for the FGFR35 cellular assay
Method: Compounds of the invention are tested for their ability to inhibit transformed Ba/F3-TEL-FGFR35 cells proliferation, which is depended on FGFR35 cellular kinase activity. Ba/F3-TEL-FGFR35 are cultured up to 800,000 cells/mL in suspension, with RPMI 1640 supplemented with 10% fetal bovine serum as the culture medium. Cells are dispensed into 384-well format plate at 5000 cell/well in 50 μL culture medium. Compounds of the invention are dissolved and diluted in dimethylsulfoxide (DMSO). Twelve points 1:3 serial dilutions are made into DMSO to create concentrations gradient ranging typically from 10 mM to 0.05 μM. Cells are added with 50 nL of diluted compounds and incubated for 48 hours in cell culture incubator. AlamarBlue® (TREK Diagnostic Systems), which can be used to monitor the reducing environment created by proliferating cells, are added to cells at final concentration of 10%. After additional four hours of incubation in a 37° C. cell culture incubator, fluorescence signals from reduced AlamarBlue® (Excitation at 530 nm, Emission at 580 nm) are quantified on Analyst GT (Molecular Devices Corp.). IC50 values are calculated by linear regression analysis of the percentage inhibition of each compound at 12 concentrations.
Target sequence in this assay (P22607 472-761 limits assumed, change not shown): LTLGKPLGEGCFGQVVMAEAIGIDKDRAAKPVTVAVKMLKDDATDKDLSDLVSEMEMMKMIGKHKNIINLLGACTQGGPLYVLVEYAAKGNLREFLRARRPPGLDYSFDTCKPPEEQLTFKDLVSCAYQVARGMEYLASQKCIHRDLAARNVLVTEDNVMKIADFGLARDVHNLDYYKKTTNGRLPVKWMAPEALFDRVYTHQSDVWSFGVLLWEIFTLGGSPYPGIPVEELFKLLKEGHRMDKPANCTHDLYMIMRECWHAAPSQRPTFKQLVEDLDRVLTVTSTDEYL

wild type Bcr-abl = biological target: T4, wild type Bcr-abl (Homo sapiens, UniProt P00519); test: Antiproliferative effect on cells expressing wild type Bcr-abl; format: cell-based; conditions: cell proliferation
T4 construct: the major C-terminal part (exons 2-11) of the c-abl gene; expressed in transfected cells; host or cells: murine 32D (32D-p210) or Ba/F3 cells; the other entry of the earlier key: BCR (P11274, Breakpoint cluster region protein)
Method: 32D-p210 cells are plated into 96 well TC plates at a density of 15,000 cells per well. 50 μL of two fold serial dilutions of the test compound (Cmax is 40 μM) are added to each well (STI571 is included as a positive control). After incubating the cells for 48 hours at 37° C., 5% CO2, 15 μL of MTT (Promega) is added to each well and the cells are incubated for an additional 5 hours. The optical density at 570 nm is quantified spectrophotometrically and IC50 values, the concentration of compound required for 50% inhibition, determined from a dose response curve.
Compounds of the invention are tested for their antiproliferative effect on Ba/F3 cells expressing either wild type or the mutant forms of BCR-Abl (G250E, E255V, T315I, F317L, M351T) that confers resistance or diminished sensitivity to STI571. The antiproliferative effect of these compounds on the mutant-BCR-Abl expressing cells and on the non transformed cells were tested at 10, 3.3, 1.1 and 0.37 μM as described above (in media lacking IL3). The IC50 values of the compounds lacking toxicity on the untransformed cells were determined from the dose response curves obtained as describe above.

PDGFRβ = PDGFRβ (Homo sapiens, UniProt P09619); test: Inhibition of PDGFRβ; format: biochemical
Chain of PDGFRβ (P09619 33-1106, species assumed): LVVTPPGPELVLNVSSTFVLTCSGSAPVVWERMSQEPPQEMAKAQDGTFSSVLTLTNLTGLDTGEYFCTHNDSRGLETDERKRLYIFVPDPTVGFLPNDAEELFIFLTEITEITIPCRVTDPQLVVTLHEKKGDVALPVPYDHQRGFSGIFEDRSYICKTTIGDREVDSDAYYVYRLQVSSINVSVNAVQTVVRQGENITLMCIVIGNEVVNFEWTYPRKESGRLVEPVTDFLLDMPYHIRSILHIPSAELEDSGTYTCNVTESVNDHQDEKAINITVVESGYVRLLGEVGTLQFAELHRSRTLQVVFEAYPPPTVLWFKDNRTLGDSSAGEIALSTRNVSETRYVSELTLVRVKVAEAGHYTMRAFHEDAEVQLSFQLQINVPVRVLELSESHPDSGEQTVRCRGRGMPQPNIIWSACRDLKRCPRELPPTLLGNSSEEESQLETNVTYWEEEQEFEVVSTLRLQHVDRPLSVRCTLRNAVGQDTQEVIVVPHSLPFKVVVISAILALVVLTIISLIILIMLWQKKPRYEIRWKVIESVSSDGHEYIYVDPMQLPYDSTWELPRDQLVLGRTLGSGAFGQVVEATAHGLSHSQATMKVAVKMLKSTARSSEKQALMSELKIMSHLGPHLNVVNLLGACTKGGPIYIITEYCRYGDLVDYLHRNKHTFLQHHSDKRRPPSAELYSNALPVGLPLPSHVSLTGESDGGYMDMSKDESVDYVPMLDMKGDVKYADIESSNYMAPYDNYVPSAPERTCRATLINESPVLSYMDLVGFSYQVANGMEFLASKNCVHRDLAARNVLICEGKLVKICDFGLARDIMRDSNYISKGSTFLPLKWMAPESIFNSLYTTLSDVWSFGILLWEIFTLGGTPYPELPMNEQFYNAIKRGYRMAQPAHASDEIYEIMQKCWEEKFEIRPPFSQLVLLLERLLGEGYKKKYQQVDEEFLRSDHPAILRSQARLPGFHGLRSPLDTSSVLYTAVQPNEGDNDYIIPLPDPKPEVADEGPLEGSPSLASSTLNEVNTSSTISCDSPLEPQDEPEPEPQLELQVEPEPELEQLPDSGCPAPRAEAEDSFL
Method: Compounds selectively inhibiting the proliferation of these BCR-Abl transformed cells are tested for anti-proliferative activity on Ba/F3 cells expressing either wild type or the mutant forms of Bcr-abl. In addition, compounds are assayed to measure their capacity to inhibit FGFR35 (in an enzyme and cellular assay), FLT3, PDGFRβ, trkB, c-SRC, BMX, SGK, Tie2, Lck, JNK2α2, MKK4, c-RAF, MKK6, SAPK2α and SAPK2β kinases.

FGFR35 [2] = biological target: T3, FGFR35; test: FGFR35 (enzymatic assay), HTRF; format: biochemical; set-up: purchased Upstate; conditions: purified FGFR35, 3 μM ATP; read-out: IC50 for the FGFR35 enzyme assay
Method: Kinase activity assay with purified FGFR35 (Upstate) is carried out in a final volume of 10 μL containing 0.25 μg/mL of enzyme in kinase buffer (30 mM Tris-HCl pH7.5, 15 mM MgCl2, 4.5 mM MnCl2, 15 μM Na3VO4 and 50 μg/mL BSA), and substrates (5 μg/mL biotin-poly-EY(Glu, Tyr) (CIS-US, Inc.) and 3 μM ATP). Two solutions are made: the first solution of 5 μl contains the FGFR35 enzyme in kinase buffer was first dispensed into 384—format ProxiPlate® (Perkin-Elmer) followed by adding 50 nL of compounds dissolved in DMSO, then 5 μl of second solution contains the substrate (poly-EY) and ATP in kinase buffer was added to each wells. The reactions are incubated at room temperature for one hour, stopped by adding 10 μL of HTRF detection mixture, which contains 30 mM Tris-HCl pH7.5, 0.5 M KF, 50 mM ETDA, 0.2 mg/mL BSA, 15 μg/mL streptavidin-XL665 (CIS-US, Inc.) and 150 ng/mL cryptate conjugated anti-phosphotyrosine antibody (CIS-US, Inc.). After one hour of room temperature incubation to allow for streptavidin-biotin interaction, time resolved florescent signals are read on Analyst GT (Molecular Devices Corp.). IC50 values are calculated by linear regression analysis of the percentage inhibition of each compound at 12 concentrations (1:3 dilution from 50 μM to 0.28 nM).
Target sequence in this assay (P22607 23-806): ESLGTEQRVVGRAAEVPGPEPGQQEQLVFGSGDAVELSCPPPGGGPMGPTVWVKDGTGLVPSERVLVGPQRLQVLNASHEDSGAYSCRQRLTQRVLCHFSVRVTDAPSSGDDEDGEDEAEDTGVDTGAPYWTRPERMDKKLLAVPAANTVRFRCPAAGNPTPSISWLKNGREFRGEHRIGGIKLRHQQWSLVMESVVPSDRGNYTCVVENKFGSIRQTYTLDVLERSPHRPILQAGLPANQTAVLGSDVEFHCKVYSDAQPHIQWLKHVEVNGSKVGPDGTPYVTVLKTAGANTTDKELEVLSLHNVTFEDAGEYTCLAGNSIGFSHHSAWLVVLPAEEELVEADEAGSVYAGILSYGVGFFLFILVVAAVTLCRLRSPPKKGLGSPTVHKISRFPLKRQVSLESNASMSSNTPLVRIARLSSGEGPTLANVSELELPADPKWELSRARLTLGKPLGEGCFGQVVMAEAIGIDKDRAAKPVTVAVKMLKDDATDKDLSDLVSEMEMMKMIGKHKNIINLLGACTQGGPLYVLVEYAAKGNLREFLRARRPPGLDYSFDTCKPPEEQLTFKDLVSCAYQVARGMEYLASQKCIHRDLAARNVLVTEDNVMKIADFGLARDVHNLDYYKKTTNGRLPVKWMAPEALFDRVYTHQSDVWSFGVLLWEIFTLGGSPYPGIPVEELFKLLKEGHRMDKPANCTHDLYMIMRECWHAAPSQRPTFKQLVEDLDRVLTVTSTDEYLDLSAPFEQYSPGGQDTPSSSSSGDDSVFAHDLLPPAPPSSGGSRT

Chain of c-Abl (P00519 whole entry): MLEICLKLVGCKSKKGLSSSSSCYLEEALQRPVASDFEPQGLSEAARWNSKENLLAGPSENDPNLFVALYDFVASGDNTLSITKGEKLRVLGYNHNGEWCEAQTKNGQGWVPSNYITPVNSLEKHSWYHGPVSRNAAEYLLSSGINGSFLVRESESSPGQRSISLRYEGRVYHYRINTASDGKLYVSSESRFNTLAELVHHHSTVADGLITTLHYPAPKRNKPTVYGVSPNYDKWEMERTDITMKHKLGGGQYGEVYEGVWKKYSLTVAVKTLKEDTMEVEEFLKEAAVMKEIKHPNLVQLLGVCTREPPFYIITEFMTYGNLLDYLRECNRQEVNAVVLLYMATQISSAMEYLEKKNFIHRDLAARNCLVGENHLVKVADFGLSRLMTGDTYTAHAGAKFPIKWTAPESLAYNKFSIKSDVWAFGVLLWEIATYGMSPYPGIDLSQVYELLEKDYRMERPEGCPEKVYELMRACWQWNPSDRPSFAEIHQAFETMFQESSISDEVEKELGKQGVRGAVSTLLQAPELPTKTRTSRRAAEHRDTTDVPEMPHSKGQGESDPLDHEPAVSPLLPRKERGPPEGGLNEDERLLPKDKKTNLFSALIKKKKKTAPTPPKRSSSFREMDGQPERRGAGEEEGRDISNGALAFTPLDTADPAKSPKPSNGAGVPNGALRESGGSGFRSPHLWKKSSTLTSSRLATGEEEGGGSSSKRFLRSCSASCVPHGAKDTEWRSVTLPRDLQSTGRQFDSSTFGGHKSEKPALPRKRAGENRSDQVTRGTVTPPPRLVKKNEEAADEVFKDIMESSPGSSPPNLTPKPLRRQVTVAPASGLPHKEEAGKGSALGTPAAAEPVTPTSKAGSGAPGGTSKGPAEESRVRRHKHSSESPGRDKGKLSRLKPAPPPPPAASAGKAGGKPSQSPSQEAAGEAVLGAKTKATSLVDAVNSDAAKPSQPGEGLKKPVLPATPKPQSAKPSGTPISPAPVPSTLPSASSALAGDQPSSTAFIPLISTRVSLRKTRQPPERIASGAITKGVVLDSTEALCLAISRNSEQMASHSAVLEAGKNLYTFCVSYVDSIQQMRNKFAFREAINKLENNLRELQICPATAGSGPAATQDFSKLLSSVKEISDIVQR

| SMILES | melting point [°C] | inhibition at 10 µM (c-Abl) [%] | inhibition at 10 µM (KDR) [%] | inhibition at 10 µM (FGFR3 (K650E)) [%] | GI50 (FGFR35 [1]) [nM] | IC50 (wild type Bcr-abl) [nM] | IC50 (PDGFRβ) [nM] | IC50 (FGFR35 [2]) [nM] |
| --- | --- | --- | --- | --- | --- | --- | --- | --- |
| Cc1ccc(NC(=O)c2cccc(C(F)(F)F)c2)cc1NC(=O)N(C)c1cc(Nc2ccc(N3CCN(C)CC3)cc2)ncn1 [Example 171, N-[4-Methyl-3-(3-methyl-3-{6-[4-(4-methyl-piperazin-1-yl)-phenyl-amino]-pyrimidin-4-yl}-ureido)-phenyl]-3-trifluoromethyl-benzamide] | 189.5 to 191 | 79 to 100 | 87 to 100 | 56 to 98 | – | – | – | – |
| Cc1ccc(NC(=O)c2ccc(CN3CCN(C)CC3)c(C(F)(F)F)c2)cc1NC(=O)N(C)c1cc(N)ncn1 [Example 194, N-{3-[3-(6-Amino-pyrimidin-4-yl)-3-methyl-ureido]-4-methyl-phenyl}-4-(4-methyl-piperazin-1-ylmethyl)-3-trifluoromethyl-benzamide] | 191.5 to 193 | 79 to 100 | 87 to 100 | 56 to 98 | – | – | – | – |
| Cc1ccc(NC(=O)c2cccc(C(F)(F)F)c2)cc1NC(=O)N(CCN1CCOCC1)c1cc(N)ncn1 [Example 214, N-{3-[3-(6-Amino-pyrimidin-4-yl)-3-(2-morpholin-4-yl-ethyl)-ureido]-4-methyl-phenyl}-3-trifluoromethyl-benzamide] | – | – | – | – | 49 | 14.9 | 0.4 | 65 |
